Data as given in patent US20230391739A1, “ARYL DERIVATIVES FOR TREATING TRPM3 MEDIATED DISORDERS” (Katholieke Universiteit Leuven, priority 2020, published 2023).

molecular target: T1, mouse TRPM3α2 (mTRPM3) ion channel (Mus musculus, UniProt J9SQF3); assay: TRPM3 ion channel driven Ca2+ uptake, Fluo-4 AM assay, PS-stimulated (mTRPM3); assay type: cell-based; details: TRPM3 overexpressing flip-in HEK293 cells stimulated with Pregnenolone sulfate (PS) 50 μM, activity ranges A, B, C
T1 construct: expressed in transfected cells; host or cells: flip-in HEK293
Method in brief: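 Flp-In HEK293 cells overexpressing mTRPM3α2 were added, in Ca²⁺-free Krebs, to wells already holding compound and 50 μM pregnenolone sulfate in Ca²⁺-containing Krebs. Fluo-4 AM fluorescence (ex 485/em 535 nm) was read immediately. Percent inhibition was computed from RFU relative to PS/vehicle wells and a positive-control inhibitor.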

T1 sequence (J9SQF3 1-1709 isoform J9SQF3-12): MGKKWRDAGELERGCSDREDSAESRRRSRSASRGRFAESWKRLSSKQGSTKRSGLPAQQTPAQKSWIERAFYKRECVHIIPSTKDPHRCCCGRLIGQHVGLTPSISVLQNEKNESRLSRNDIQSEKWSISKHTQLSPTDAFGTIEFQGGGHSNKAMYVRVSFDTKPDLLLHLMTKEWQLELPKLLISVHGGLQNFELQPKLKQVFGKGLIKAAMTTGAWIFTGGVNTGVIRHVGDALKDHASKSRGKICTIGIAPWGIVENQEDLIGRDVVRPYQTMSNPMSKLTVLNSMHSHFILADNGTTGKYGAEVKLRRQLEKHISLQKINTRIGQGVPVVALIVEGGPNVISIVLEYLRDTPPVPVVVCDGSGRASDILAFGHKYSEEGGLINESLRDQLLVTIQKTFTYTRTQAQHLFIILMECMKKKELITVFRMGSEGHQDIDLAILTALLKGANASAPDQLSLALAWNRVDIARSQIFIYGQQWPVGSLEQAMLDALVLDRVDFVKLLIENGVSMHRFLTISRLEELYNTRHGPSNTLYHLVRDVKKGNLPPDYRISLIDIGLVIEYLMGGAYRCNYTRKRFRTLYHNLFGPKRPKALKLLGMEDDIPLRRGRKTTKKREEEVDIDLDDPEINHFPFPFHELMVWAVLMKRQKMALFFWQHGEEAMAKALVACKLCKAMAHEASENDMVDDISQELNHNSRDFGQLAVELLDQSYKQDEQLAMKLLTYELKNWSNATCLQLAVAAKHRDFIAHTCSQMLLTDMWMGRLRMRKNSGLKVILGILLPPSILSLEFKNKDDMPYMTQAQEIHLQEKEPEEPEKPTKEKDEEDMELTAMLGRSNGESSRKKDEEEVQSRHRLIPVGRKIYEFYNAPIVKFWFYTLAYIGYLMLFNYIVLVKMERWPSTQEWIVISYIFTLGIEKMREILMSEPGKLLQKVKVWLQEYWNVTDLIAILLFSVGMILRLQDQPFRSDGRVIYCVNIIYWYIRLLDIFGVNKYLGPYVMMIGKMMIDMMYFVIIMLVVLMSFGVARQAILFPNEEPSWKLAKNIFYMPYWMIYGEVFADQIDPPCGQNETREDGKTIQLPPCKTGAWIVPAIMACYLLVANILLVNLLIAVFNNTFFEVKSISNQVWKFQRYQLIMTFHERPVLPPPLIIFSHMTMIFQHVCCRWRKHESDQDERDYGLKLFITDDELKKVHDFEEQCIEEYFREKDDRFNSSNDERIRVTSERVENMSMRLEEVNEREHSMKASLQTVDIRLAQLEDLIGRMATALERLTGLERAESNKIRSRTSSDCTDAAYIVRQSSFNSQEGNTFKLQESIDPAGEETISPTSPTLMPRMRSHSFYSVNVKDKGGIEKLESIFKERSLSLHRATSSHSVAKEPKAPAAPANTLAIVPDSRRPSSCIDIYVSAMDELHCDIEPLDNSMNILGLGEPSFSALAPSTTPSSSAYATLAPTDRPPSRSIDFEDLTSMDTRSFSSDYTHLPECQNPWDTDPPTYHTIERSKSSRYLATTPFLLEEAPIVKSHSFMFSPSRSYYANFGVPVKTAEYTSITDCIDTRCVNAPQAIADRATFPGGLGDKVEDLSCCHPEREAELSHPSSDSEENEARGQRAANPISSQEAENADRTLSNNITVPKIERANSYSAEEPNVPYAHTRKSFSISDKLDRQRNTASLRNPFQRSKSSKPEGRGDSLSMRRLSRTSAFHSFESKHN

IC50 [nM]	SMILES
< 1000	Cc1oc2ccc(OCc3ccccc3)cc2c1C(=O)NC1CCNC(C)C1 (racemic) [Cpd 114, rac-5-(benzyloxy)-2-methyl-N-(trans-2-methylpiperidin-4-yl)benzofuran-3-carboxamide]
< 1000	Cc1oc2ccc(COc3ccccc3F)cc2c1C(=O)NC(CO)C(N)=O (single isomer, unassigned) [Cpd 321-En 2, N-(1-amino-3-hydroxy-1-oxopropan-2-yl)-5-((2-fluorophenoxy)methyl)-2-methylbenzofuran-3-carboxamide]
< 1000	COc1ccccc1COc1ccc2oc(C)c(C(=O)NS(=O)(=O)C3CC3)c2c1 [Cpd 199, N-(cyclopropylsulfonyl)-5-((2-methoxybenzyl)oxy)-2-methylbenzofuran-3-carboxamide]
1000 to 20000	Cc1oc2ccc(OCc3ccccc3COC3CCCCO3)cc2c1C(=O)NC1CCN(C)CC1 (stereo not drawn) [Cpd 260, 2-methyl-N-(1-methylpiperidin-4-yl)-5-((2-(((tetrahydro-2H-pyran-2-yl)oxy)methyl)benzyl)oxy)benzofuran-3-carboxamide]
< 1000	COC(=O)[C@@H]1C[C@H](NC(=O)c2c(C)oc3ccc(OCc4ccccc4)cc23)CN1 [Cpd 191, methyl (2S,4S)-4-(5-(benzyloxy)-2-methylbenzofuran-3-carboxamido)pyrrolidine-2-carboxylate]
> 20000	Cc1oc2cc(C#N)c(OCc3ccccc3)cc2c1C(=O)NC1CNCC1(F)F (single isomer, unassigned) [Cpd 301-En 1, 5-(benzyloxy)-6-cyano-N-(4,4-difluoropyrrolidin-3-yl)-2-methylbenzofuran-3-carboxamide]
1000 to 20000	Cc1oc2ccc(OCc3ccccc3)cc2c1C(=O)NC1CC(C)(C)NC(C)(C)C1 [Cpd 209, 5-(benzyloxy)-2-methyl-N-(2,2,6,6-tetramethylpiperidin-4-yl)benzofuran-3-carboxamide]
< 1000	Cc1oc2ccc(OC(C)c3ccccc3)cc2c1C(=O)NC1(CO)CCOCC1 (single isomer, unassigned) [Cpd 308-En 1, N-(4-(hydroxymethyl)tetrahydro-2H-pyran-4-yl)-2-methyl-5-(1-phenylethoxy)benzofuran-3-carboxamide]
< 1000	Cc1oc2ccc(OCc3ccccc3)cc2c1C(=O)NC1CNCCC1F (single isomer, unassigned) [Cpd 130-Dia 1]
< 1000	Cc1oc2ccc(OC(CO)c3ccccc3F)cc2c1C(=O)NC1(C(N)=O)CCC1 (single isomer, unassigned) [Cpd 345-En 2, N-(1-carbamoylcyclobutyl)-5-(1-(2-fluorophenyl)-2-hydroxyethoxy)-2-methylbenzofuran-3-carboxamide]
1000 to 20000	Cc1oc2ccc(OCc3ccccc3)cc2c1C(=O)NC1CCN(C(=O)OC(C)(C)C)CC1 [Cpd 249, tert-butyl 4-(5-(benzyloxy)-2-methylbenzofuran-3-carboxamido)piperidine-1-carboxylate]
< 1000	Cc1oc2ccc(OCc3ccccc3)cc2c1C(=O)NCC1(CO)COC1 [Cpd 128, 5-(benzyloxy)-N-((3-(hydroxymethyl)oxetan-3-yl)methyl)-2-methylbenzofuran-3-carboxamide]
< 1000	Cc1oc2ccc(OCc3ccccc3)cc2c1C(=O)NC1CN(C(=O)OC(C)(C)C)CCC1F (single isomer, unassigned) [Cpd 255-Dia 1, tert-butyl 3-(5-(benzyloxy)-2-methylbenzofuran-3-carboxamido)-4-fluoropiperidine-1-carboxylate]
< 1000	Cc1oc2ccc(OCc3ccccc3F)cc2c1C(=O)NC1CCN(CCO)C1=O (single isomer, unassigned) [Cpd 311-En 1, 5-((2-Fluorobenzyl)oxy)-N-(1-(2-hydroxyethyl)-2-oxopyrrolidin-3-yl)-2-methylbenzofuran-3-carboxamide]
> 20000	CN1CCC(NC(=O)c2c(C3CCCC3)oc3ccc(OCc4ccccc4)cc23)CC1 [Cpd 221, 5-(benzyloxy)-2-cyclopentyl-N-(1-methylpiperidin-4-yl)benzofuran-3-carboxamide]
1000 to 20000	Cc1oc2ccc(OCc3ccccc3)cc2c1C(=O)N[C@H]1C[C@@H]2CN(C(=O)OC(C)(C)C)C[C@@H]2C1 [Cpd 259, tert-butyl trans-5-(5-(benzyloxy)-2-methylbenzofuran-3-carboxamido)hexahydrocyclopenta-[c]pyrrole-2(1H)-carboxylate]
< 1000	Cc1oc2cc(F)c(OCc3ccccc3)cc2c1C(=O)NC1CNCC1(F)F (single isomer, unassigned) [Cpd 302-En 2, 5-(benzyloxy)-N-(4,4-difluoropyrrolidin-3-yl)-6-fluoro-2-methylbenzofuran-3-carboxamide]
< 1000	Cc1oc2ccc(OCc3ccccc3)cc2c1C(=O)NCC1(N(C)C)CCCC1 [Cpd 187, 5-(benzyloxy)-N-((1-(dimethylamino)cyclopentyl)methyl)-2-methylbenzofuran-3-carboxamide]
1000 to 20000	Cc1ccc(COc2ccc3oc(C)c(C(=O)O)c3c2)cc1 [Cpd 006, 2-methyl-5-((4-methylbenzyl)oxy)benzofuran-3-carboxylic acid]

IC50 [nM]	SMILES
1000 to 20000	Cc1oc2ccc(OCc3ccc(F)cc3)cc2c1C(=O)O [Cpd 009, 5-((4-fluorobenzyl)oxy)-2-methylbenzofuran-3-carboxylic acid]
1000 to 20000	Cc1oc2ccc(OCc3ccccc3)cc2c1C(=O)NCC(O)c1cccnc1 (stereo not drawn) [Cpd 174, 5-(benzyloxy)-N-(2-hydroxy-2-(pyridin-3-yl)ethyl)-2-methylbenzofuran-3-carboxamide]
< 1000	Cc1oc2ccc(OC(C)c3ccccc3)cc2c1C(=O)NC1(C(N)=O)CCC1 (single isomer, unassigned) [Cpd 343-En 2, N-(1-carbamoylcyclobutyl)-2-methyl-5-(1-phenylethoxy)benzofuran-3-carboxamide]
1000 to 20000	CCc1oc2ccc(OCc3cccc(F)c3)cc2c1C(=O)O [Cpd 015, 2-ethyl-5-((3-fluorobenzyl)oxy)benzofuran-3-carboxylic acid]
> 20000	Cc1oc2ccc(OCc3ccccc3)cc2c1C(=O)NC1CNC1 [Cpd 042, N-(azetidin-3-yl)-5-(benzyloxy)-2-methylbenzofuran-3-carboxamide]
< 1000	Cc1oc2ccc(OCc3cccc(F)c3F)cc2c1C(=O)N[C@H]1CCNC1 [Cpd 135, (S)-5-((2,3-difluorobenzyl)oxy)-2-methyl-N-(pyrrolidin-3-yl)benzofuran-3-carboxamide]
< 1000	Cc1oc2ccc(OCc3ccccc3)cc2c1C(=O)NC1CC(CO)(CO)C1 [Cpd 166, 5-(benzyloxy)-N-(3,3-bis(hydroxymethyl)cyclobutyl)-2-methylbenzofuran-3-carboxamide]
< 1000	Cc1oc2ccc(OCc3ccccc3F)cc2c1C(=O)O [Cpd 008, 5-((2-fluorobenzyl)oxy)-2-methylbenzofuran-3-carboxylic acid]
> 20000	Cc1oc2ccc(OCc3cccc(CN)c3)cc2c1C(=O)NC1CCNC1=O (stereo not drawn) [Cpd 157, 5-((3-(aminomethyl)benzyl)oxy)-2-methyl-N-(2-oxopyrrolidin-3-yl)benzofuran-3-carboxamide]
< 1000	CCN1CCC(NC(=O)c2c(C)oc3ccc(OCc4ccccc4)cc23)CC1 [Cpd 151, 5-(benzyloxy)-N-(1-ethylpiperidin-4-yl)-2-methylbenzofuran-3-carboxamide]
> 20000	Cc1oc2ccc(OCc3ccccc3N3CCN(C)CC3)cc2c1C(=O)NC1CCNC1=O (stereo not drawn) [Cpd 245, 2-methyl-5-((2-(4-methylpiperazin-1-yl)benzyl)oxy)-N-(2-oxopyrrolidin-3-yl)benzofuran-3-carboxamide]
< 1000	Cc1oc2ccc(OCc3cccc(C(F)(F)F)c3)cc2c1C(=O)N[C@H]1CCNC1 [Cpd 204, (S)-2-methyl-N-(pyrrolidin-3-yl)-5-((3-(trifluoromethyl)benzyl)oxy)benzofuran-3-carboxamide]
1000 to 20000	Cc1oc2ccc(OCc3ccccc3)cc2c1C(=O)NC1CC1 [Cpd 039, 5-(benzyloxy)-N-cyclopropyl-2-methylbenzofuran-3-carboxamide]
1000 to 20000	Cc1oc2ccc(OCc3ccc(C#N)cc3)cc2c1C(=O)N[C@H]1CCNC1 [Cpd 103, (S)-5-((4-cyanobenzyl)oxy)-2-methyl-N-(pyrrolidin-3-yl)benzofuran-3-carboxamide]
< 1000	Cc1cccc(COc2ccc3oc(C)c(C(=O)N[C@H]4CCNC4)c3c2)c1 [Cpd 084, (S)-2-methyl-5-((3-methylbenzyl)oxy)-N-(pyrrolidin-3-yl)benzofuran-3-carboxamide]
< 1000	Cc1oc2ccc(OCc3ccccc3)cc2c1C(=O)NCC1CCCN1 (stereo not drawn) [Cpd 078, 5-(benzyloxy)-2-methyl-N-(pyrrolidin-2-ylmethyl)benzofuran-3-carboxamide]
1000 to 20000	Cc1ccc(COc2ccc3oc(C)c(C(=O)NS(=O)(=O)C4CC4)c3c2)cc1 [Cpd 169, N-(cyclopropylsulfonyl)-2-methyl-5-((4-methylbenzyl)oxy)benzofuran-3-carboxamide]
1000 to 20000	Cc1nc(C)n(CCNC(=O)c2c(C)oc3ccc(OCc4ccccc4)cc23)n1 [Cpd 179, 5-(benzyloxy)-N-(2-(3,5-dimethyl-1H-1,2,4-triazol-1-yl)ethyl)-2-methylbenzofuran-3-carboxamide]
> 20000	Cc1oc2ccc(OCc3ccccc3)cc2c1C(=O)N1CCCC(C(=O)NCC(C)C)C1 (stereo not drawn) [Cpd 236, 1-(5-(benzyloxy)-2-methylbenzofuran-3-carbonyl)-N-isobutylpiperidine-3-carboxamide]

SMILES	IC50 [nM]
Cc1oc2ccc(OCc3ccccc3)cc2c1C(=O)N[C@@H]1C[C@H]2COC[C@@H](C1)N2C(=O)OC(C)(C)C [Cpd 265, tert-butyl (1R,5S,7r)-7-(5-(benzyloxy)-2-methylbenzofuran-3-carboxamido)-3-oxa-9-azabicyclo-[3.3.1]nonane-9-carboxylate]	> 20000
